Assays:
[1] = target: D(2) dopamine receptor (Homo sapiens) (UniProt P14416); conditions: Compound concentration 10.0 uM
[2] = target: Calcium/calmodulin-dependent protein kinase type 1B (Homo sapiens, UniProt Q6P2M8); assay: Inhibition of PNCK at compound concentration of 10.0 uM using the ScanMax (DiscoverX)
Ephrin type-A receptor 1 = Ephrin type-A receptor 1 (Homo sapiens, UniProt P21709); assay: Inhibition of EPHA1 at compound concentration of 10.0 uM using the ScanMax (DiscoverX)
[3] = target: G protein-coupled receptor kinase 3 (Homo sapiens, UniProt P35626); assay: Inhibition of GRK3 at compound concentration of 10.0 uM using the ScanMax (DiscoverX)
G protein-coupled receptor kinase 3, sequence (P35626 whole entry): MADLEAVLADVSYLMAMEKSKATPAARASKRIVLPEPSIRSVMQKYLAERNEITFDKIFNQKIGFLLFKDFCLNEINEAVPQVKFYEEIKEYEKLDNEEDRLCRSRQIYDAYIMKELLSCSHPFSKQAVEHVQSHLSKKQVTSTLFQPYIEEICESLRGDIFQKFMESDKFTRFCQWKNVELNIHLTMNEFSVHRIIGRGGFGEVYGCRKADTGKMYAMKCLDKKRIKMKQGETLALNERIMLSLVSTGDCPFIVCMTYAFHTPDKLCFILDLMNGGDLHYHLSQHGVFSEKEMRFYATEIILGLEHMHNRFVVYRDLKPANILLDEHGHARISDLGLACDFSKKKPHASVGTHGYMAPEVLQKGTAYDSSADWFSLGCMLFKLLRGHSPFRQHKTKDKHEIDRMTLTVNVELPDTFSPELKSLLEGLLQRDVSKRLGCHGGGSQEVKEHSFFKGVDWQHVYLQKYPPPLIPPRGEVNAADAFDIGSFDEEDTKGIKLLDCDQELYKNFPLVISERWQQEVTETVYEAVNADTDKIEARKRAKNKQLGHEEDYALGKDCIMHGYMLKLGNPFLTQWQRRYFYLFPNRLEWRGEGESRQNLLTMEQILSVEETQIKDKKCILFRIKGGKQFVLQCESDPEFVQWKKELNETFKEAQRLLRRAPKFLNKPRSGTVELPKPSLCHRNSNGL

[4] = target: Homeodomain-interacting protein kinase 2 (Homo sapiens, UniProt Q9H2X6); assay: Inhibition of HIPK2 at compound concentration of 10.0 uM using the ScanMax (DiscoverX)
[5] = target: Adenosine receptor A2a (Homo sapiens) (UniProt P29274); assay: A2a (h) Ligand binding assay; conditions: Compound concentration 10.0 uM
Adenosine receptor A2a (Homo sapiens), sequence (P29274 whole entry): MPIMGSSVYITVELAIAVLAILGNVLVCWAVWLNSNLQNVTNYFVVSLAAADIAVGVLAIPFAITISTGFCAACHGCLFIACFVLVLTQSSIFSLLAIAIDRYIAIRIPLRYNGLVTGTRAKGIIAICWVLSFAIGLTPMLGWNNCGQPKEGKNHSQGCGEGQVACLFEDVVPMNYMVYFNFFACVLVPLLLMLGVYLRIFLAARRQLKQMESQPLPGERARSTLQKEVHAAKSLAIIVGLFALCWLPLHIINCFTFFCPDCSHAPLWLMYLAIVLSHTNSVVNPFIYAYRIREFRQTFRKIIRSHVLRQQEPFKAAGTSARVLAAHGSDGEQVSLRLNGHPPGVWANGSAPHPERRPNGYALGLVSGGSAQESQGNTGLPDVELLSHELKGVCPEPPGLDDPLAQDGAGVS

[6] = target: Adenosine receptor A3 (Homo sapiens) (UniProt P0DMS8); assay: A3 (h) Ligand binding assay; conditions: Compound concentration 10.0 uM
Adenosine receptor A3 (Homo sapiens), sequence (P0DMS8 whole entry): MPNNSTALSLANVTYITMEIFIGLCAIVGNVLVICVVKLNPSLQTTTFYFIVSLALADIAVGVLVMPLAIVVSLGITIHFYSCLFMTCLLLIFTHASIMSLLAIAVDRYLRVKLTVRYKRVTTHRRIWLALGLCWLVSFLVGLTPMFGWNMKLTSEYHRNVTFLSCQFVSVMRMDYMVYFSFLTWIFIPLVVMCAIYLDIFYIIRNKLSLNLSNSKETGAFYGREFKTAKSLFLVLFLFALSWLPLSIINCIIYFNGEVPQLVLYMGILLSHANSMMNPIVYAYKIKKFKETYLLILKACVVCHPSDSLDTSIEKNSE

[7] = target: D(1B) dopamine receptor (Homo sapiens) (UniProt P21918); assay: D5 (h) Ligand binding assay; conditions: Compound concentration 10.0 uM
[8] = target: Tumor necrosis factor (Homo sapiens) (UniProt P01375); assay: TNF-alpha (h) Ligand binding assay; conditions: Compound concentration 10.0 uM
[9] = target: C-C chemokine receptor type 1 (Homo sapiens) (UniProt P32246); assay: CCR1 (h) Ligand binding assay; conditions: Compound concentration 10.0 uM
[10] = target: Histamine H2 receptor (Homo sapiens) (UniProt P25021); assay: H2 Ligand binding assay; conditions: Compound concentration 10.0 uM
[11] = target: T1, Muscarinic acetylcholine receptor M1 (Homo sapiens) (UniProt P11229); assay: M1 (h) Ligand binding assay; conditions: Compound concentration 10.0 uM
T1 sequence (whole entry): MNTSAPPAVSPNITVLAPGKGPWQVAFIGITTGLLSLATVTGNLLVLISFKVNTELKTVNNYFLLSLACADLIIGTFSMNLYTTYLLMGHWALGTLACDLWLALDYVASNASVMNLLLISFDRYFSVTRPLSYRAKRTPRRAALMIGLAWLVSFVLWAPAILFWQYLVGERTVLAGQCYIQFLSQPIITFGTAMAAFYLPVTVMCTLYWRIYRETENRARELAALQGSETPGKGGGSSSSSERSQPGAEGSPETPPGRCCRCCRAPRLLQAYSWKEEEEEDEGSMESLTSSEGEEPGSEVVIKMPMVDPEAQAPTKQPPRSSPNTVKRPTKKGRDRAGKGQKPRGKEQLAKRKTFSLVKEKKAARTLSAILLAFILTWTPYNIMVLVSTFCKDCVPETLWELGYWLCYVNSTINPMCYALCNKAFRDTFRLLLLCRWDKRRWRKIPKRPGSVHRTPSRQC

[12] = target: Muscarinic acetylcholine receptor M3 (Homo sapiens) (UniProt P20309); assay: M3 (h) Ligand binding assay; conditions: Compound concentration 10.0 uM
Muscarinic acetylcholine receptor M3 (Homo sapiens), sequence (P20309 whole entry, looked up): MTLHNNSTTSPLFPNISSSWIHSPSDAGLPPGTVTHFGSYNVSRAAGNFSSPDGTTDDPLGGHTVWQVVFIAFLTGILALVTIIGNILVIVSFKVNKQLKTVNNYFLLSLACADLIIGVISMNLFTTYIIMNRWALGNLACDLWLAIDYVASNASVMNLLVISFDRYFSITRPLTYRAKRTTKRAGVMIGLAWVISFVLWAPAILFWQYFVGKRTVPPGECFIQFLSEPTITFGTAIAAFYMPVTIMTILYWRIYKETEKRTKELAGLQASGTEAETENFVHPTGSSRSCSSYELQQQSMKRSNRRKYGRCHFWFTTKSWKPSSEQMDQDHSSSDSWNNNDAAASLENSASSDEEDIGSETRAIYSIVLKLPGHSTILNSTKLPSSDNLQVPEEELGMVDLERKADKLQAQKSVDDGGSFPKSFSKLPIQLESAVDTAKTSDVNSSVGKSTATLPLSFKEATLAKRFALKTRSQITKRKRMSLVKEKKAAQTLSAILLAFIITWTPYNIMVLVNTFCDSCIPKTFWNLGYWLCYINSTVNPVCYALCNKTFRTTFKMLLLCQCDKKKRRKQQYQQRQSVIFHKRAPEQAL

[13] = target: T2, Muscarinic acetylcholine receptor M5 (Homo sapiens) (UniProt P08912); assay: M5 (h) Ligand binding assay; conditions: Compound concentration 10.0 uM
T2 sequence (whole entry): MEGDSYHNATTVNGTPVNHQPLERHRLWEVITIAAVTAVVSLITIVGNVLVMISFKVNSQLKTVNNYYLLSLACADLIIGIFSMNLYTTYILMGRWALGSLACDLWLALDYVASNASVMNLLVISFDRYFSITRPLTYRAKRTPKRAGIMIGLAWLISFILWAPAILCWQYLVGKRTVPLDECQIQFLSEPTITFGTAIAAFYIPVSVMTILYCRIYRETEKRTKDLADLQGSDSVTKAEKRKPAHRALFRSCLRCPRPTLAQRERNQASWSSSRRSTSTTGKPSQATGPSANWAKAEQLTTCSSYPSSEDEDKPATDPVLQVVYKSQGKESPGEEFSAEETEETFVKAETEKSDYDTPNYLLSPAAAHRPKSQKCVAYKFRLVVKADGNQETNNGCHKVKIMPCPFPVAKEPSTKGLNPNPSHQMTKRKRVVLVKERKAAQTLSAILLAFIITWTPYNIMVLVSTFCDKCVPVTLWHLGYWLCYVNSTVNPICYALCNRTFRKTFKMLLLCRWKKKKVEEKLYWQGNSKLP

[14] = target: Substance-P receptor (Homo sapiens) (UniProt P25103); assay: NK1 (h) Ligand binding assay
Substance-P receptor (Homo sapiens), sequence (P25103 whole entry): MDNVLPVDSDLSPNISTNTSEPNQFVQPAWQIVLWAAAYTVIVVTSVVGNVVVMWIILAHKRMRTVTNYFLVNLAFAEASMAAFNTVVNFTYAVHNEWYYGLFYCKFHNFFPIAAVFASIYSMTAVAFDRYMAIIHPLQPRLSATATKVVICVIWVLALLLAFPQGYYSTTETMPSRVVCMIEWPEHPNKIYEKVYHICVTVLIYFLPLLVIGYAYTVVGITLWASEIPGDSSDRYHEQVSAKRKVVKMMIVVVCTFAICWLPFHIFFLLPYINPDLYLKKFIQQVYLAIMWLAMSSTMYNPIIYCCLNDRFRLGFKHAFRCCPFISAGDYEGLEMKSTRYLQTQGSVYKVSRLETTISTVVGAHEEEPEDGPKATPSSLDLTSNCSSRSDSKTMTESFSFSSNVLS

[15] = target: Neurotensin receptor type 1 (Homo sapiens) (UniProt P30989); assay: NT1 (h) Ligand binding assay; conditions: Compound concentration 10.0 uM
Neurotensin receptor type 1 (Homo sapiens), sequence (P30989 whole entry): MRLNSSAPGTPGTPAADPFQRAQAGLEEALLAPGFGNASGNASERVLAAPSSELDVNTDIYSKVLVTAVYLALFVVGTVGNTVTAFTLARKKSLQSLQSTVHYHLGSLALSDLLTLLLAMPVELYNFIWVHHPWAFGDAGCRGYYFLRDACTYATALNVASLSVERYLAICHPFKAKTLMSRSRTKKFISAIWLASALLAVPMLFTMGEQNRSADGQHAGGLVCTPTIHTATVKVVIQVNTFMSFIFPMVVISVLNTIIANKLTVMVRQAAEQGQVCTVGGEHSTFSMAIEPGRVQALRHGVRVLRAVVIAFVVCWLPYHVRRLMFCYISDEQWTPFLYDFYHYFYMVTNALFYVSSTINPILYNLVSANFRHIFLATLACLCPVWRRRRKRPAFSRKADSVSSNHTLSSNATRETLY

[16] = target: Delta-type opioid receptor (Homo sapiens) (UniProt P41143); assay: Delta (h) Ligand binding assay; conditions: Compound concentration 10.0 uM
Delta-type opioid receptor (Homo sapiens), sequence (P41143 whole entry): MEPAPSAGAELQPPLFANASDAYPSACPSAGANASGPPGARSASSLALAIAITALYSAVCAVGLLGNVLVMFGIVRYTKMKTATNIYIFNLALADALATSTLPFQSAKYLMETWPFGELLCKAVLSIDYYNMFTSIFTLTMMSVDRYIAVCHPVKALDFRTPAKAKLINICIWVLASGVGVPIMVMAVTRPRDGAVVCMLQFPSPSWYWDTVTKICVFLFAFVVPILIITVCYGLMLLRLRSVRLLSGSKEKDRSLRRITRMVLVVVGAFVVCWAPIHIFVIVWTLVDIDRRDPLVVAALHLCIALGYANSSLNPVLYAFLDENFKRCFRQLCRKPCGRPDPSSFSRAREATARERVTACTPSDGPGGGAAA

[17] = target: Mu-type opioid receptor (Homo sapiens) (UniProt P35372); assay: Mu (h) Ligand binding assay; conditions: Compound concentration 10.0 uM
Mu-type opioid receptor (Homo sapiens), sequence (P35372 whole entry): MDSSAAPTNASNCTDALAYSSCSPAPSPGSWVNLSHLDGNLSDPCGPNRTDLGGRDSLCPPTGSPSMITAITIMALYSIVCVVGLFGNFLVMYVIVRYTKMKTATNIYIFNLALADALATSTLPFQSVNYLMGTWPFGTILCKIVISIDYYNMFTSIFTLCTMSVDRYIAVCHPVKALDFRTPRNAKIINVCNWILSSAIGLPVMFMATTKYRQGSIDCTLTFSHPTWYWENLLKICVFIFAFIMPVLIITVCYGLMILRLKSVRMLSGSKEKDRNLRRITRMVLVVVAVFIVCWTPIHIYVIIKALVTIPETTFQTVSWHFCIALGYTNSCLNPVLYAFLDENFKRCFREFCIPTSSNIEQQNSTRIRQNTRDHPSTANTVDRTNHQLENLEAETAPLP

[18] = target: Pituitary adenylate cyclase-activating polypeptide type I receptor (Homo sapiens) (UniProt P41586); assay: PACAP[…] (h) Ligand binding assay; conditions: Compound concentration 10.0 uM
[19] = target: Thromboxane A2 receptor (Homo sapiens) (UniProt P21731); assay: TXA2/PGH2 (h) Ligand binding assay; conditions: Compound concentration 10.0 uM
Thromboxane A2 receptor (Homo sapiens), sequence (P21731 whole entry): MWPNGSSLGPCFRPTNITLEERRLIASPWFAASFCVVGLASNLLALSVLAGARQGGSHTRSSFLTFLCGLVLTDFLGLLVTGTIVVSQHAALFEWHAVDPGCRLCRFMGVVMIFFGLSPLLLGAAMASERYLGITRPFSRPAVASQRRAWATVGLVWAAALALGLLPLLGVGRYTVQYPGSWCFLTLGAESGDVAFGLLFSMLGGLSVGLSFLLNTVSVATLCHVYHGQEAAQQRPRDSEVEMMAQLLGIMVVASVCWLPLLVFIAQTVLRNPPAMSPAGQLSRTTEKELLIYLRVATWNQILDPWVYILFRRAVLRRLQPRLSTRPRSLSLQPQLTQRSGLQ

[20] = target: T3, 5-hydroxytryptamine receptor 2C (Homo sapiens) (UniProt P28335); assay: 5-HT2C (h) Ligand binding assay; conditions: Compound concentration 10.0 uM
T3 sequence (whole entry): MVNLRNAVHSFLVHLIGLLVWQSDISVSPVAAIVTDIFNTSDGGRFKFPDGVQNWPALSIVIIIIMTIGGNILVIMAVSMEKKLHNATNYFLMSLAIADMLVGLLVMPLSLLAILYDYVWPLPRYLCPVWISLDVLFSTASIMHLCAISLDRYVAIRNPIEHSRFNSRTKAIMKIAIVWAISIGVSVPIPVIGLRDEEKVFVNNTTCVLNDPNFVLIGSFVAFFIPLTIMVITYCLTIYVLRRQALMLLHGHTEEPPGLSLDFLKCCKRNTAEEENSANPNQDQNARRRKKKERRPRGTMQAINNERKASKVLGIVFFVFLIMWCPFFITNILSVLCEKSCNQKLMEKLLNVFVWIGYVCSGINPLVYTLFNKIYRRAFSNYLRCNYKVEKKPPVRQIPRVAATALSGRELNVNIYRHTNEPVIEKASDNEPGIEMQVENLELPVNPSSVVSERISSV

[21] = target: 5-hydroxytryptamine receptor 6 (Homo sapiens) (UniProt P50406); assay: 5-HT6 (h) Ligand binding assay; conditions: Compound concentration 10.0 uM
5-hydroxytryptamine receptor 6 (Homo sapiens), sequence (P50406 whole entry): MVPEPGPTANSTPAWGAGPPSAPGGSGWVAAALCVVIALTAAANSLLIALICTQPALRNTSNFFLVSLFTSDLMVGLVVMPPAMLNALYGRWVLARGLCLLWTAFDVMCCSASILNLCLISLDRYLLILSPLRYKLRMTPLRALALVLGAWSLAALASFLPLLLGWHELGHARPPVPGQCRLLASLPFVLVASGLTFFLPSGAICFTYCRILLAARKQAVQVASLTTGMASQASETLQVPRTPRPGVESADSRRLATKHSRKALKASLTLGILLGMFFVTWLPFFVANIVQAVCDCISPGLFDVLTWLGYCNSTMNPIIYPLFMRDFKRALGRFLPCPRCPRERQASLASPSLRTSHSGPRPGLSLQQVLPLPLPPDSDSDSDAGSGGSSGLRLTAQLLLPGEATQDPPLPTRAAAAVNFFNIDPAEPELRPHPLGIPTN

[22] = target: Sigma receptor (Homo sapiens) (UniProt Q99720+Q5BJF2); assay: Sigma (non selective) Ligand binding assay; format: protein assay
Sigma receptor (Homo sapiens), sequence (Q5BJF2 whole entry, looked up): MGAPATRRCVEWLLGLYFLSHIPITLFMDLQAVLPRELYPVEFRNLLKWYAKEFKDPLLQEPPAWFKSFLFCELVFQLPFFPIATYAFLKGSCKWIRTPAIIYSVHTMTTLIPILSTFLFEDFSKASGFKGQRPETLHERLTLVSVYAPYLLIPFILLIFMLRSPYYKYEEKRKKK
Sigma receptor (Homo sapiens), sequence (Q99720 whole entry, looked up): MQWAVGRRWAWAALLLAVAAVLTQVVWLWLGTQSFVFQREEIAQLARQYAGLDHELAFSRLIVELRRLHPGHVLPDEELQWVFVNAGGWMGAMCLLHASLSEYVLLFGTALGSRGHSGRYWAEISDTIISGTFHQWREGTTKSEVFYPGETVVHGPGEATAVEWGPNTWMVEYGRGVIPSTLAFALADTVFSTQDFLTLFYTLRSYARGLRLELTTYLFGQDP

[23] = target: GABA-A receptor; anion channel (Rattus norvegicus) (UniProt O09028+P15431+P18506+P18508+P19969+P20236+P23574+P23576+P28471+P28473+P30191+P62813+P63079+P63138+Q91ZM7+Q9ES14); conditions: Compound concentration 10.0 uM
[24] = target: Atrial natriuretic peptide receptor 1 (Homo sapiens) (UniProt P16066); assay: ANP Ligand binding assay; conditions: Compound concentration 10.0 uM

Cn1cncc1[C@@](O)(COc1ccc(C#N)cc1-c1ccc(OC(F)(F)F)cc1)c1ccc(C#N)cc1 [A-108]
inactive: inhibition [1] 7.47%

Cn1cncc1[C@](O)(COc1ccc(C#N)cc1-c1ccc(OC(F)(F)F)cc1)c1ccc(C#N)cc1 [ABT-100]
active: inhibition [7] 54% | inhibition [10] 53% | inhibition ([14]; Compound concentration 10.0 uM) 68% | inhibition ([22]; Compound concentration 10.0 uM) 67%
inactive: inhibition [5] < 10% | inhibition [6] < 10% | inhibition [8] 24% | inhibition [9] < 10% | inhibition [11] < 10% | inhibition [12] < 10% | inhibition [13] 18% | inhibition ([14]; Compound concentration 3.0 uM) 31% | inhibition [15] < 10% | inhibition [16] 14% | inhibition [17] 18% | inhibition [18] < 10% | inhibition [19] 24% | inhibition [20] < 10% | inhibition [21] < 10% | inhibition ([22]; Compound concentration 3.0 uM) 28% | inhibition [23] 6.85% | inhibition [24] < 10%
> 10 µM (not active): Kd [2] | Kd (Ephrin type-A receptor 1) | Kd [3] | Kd [4]
